# Laboratory results reported in patent US20250230165A1, “HETEROCYCLIC COMPOUNDS FOR USE IN THE TREATMENT OF CANCER” (ARTIOS PHARMA LIMITED, priority 2021, published 2025).
# Target: T1, Human Polθ polymerase domain (aa1820-2590) (Homo sapiens, UniProt O75417)
# T1 construct: Human Polθ polymerase domain (aa1820-2590) was expressed in E. coli; made in house; host or cells: E. coli
# T1 sequence (O75417 1820-2590): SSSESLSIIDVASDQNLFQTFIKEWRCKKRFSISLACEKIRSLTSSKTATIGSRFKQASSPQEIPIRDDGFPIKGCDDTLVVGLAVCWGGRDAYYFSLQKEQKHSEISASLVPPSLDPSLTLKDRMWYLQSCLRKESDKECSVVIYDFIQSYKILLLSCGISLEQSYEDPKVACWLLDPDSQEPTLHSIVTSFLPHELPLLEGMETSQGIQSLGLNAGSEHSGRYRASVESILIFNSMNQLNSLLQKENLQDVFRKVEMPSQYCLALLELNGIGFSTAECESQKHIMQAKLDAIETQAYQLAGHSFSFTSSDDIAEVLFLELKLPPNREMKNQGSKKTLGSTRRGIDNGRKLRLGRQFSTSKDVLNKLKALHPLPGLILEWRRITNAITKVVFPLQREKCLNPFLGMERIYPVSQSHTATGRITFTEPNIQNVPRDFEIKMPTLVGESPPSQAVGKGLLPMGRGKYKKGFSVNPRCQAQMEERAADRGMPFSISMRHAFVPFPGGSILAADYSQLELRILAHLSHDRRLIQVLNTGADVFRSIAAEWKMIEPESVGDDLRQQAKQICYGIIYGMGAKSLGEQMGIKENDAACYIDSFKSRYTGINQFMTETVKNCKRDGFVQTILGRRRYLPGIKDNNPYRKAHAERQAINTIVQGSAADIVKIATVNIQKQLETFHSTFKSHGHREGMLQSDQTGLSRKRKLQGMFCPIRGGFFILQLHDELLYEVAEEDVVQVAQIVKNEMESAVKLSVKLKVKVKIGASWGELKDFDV
# Experiment: Polθ Polymerase Domain Kinact/KI Assay (PicoGreen)
# Assay type: biochemical
# Conditions: 0.8 nM Polθ, 100 nM DNA substrate, kobs vs [I] fit for 2-step covalent inhibitor
# Description: Polθ Polymerase Domain Kinact/KI Assay
# A PicoGreen assay was used to measure the Kinact and KI values of covalent compounds that inhibit the activity of Polθ in vitro.
# Human Polθ polymerase domain (aa1820-2590) was expressed in E. coli, purified, aliquoted and stored at −80° C. until required. Polθ substrate was generated from a 1.2:1 mix of DNA II Short to DNA II Long to give a final concentration of […] substrate in annealing buffer (20 mM Tris pH 7.5, 50 mM NaCl). The substrate was heated in […] aliquots to 95° C. in a heating block for 5 min before the heating block switched off, the reaction left to cool to rt and stored at −20° C. until required.
# Assay measurements were performed with 1× buffer comprising 25 mM Tris pH 7.5, 12.5 mM NaCl, […], 5% (v/v) glycerol, 0.01% v/v Triton x-100, 0.1 mg/ml BSA, 1 mM DTT. Test compounds were prepared by dilution in 100% DMSO to give a 12 μM intermediate stock of each (100× final top concentration). 100 nL of 23×1:1.5-fold serial dilutions and a DMSO only control were dispensed using the Tecan dispenser into Greiner 384 well black low volume plates (product code 784076). DMSO concentration was maintained at 1% of the final assay volume by back filling with DMSO.
# 2× Working stock of substrate (200 nM of DNA substrate and […] dNTPs) and enzyme ([…] PolΘ) were made up in assay buffer. 5 μL/well of both enzyme and substrate 2× solutions were dispensed using a Tempest dispenser (Formulatrix) into assay plates that had been pre-dispensed with compound to give a final assay concentration of 100 nM DNA substrate, […] dNTPs and 0.8 nM Polθ. To stop the reaction, […] of a solution containing 25 mM Tris-HCl pH 7.5 and 20 mM EDTA was added at […] (t=0, 2.5, 5, 7.5, 10, 12.5, 15, 20, 25, 30, 35, 40, 45, 50, 55 and 60 min) using the Tempest's time delay function. The plates were covered during the time course to prevent evaporation. After completing the assay, 5 μL of detection reagent (25 mM Tris-HCl pH 7.5 and 2.5% (v/v) PicoGreen) was dispensed into the wells using a Tempest liquid handler (Formulatrix) and plates subsequently read on the CLARIOstar Plus (BMG Labtech) using the default optical settings for fluorescein and the auto gain/focus settings.
# All data analysis was carried out using GraphPad Prism V.8 (GraphPad Software Inc, San Diego, CA) Time course data for each inhibitor concentration was fitted to equation 1 to determine kobs values.^1 Any time points where the control (DMSO alone) reaction was no longer linear were excluded from the analysis. 1) Evaluation of Enzyme Inhibitors in Drug Discovery (Ch9), R. A Copeland, Wiley, 2nd Edition 2013.
# A secondary plot of kobs vs [I] is used to determine the Kinact and KI parameters (for a 2-step covalent inhibitor) by fitting to equation 2.^1
row,SMILES,Kinact/Kl
1,"C=CC(=O)N1CC(N2CC[C@H](CCN3C[C@H]4CC(=O)N(c5cc(C(F)(F)F)cc(C)n5)[C@@H]4C(=O)N(C)c4cccc(Cl)c43)C2)C1 [Example 221, (3aR,11aS)-5-(2-((R)-1-(1-acryloylazetidin-3-yl)pyrrolidin-3-yl)ethyl)-6-chloro-10-methyl-1-(6-methyl-4-(trifluoromethyl)pyridin-2-yl)-1,3a,4,5,10,11a-hexahydro-2H-benzo[b] pyrrolo[2,3-f] [1,4]diazocine-2,11(3H)-dione]",3.03e+06 M⁻¹ s⁻¹
2,"C=CC(=O)N1CC2(CN(CCN3C[C@H]4CC(=O)N(c5cc(C(F)(F)F)cc(C)n5)[C@@H]4C(=O)N(C)c4cccc(Cl)c43)C[C@@H](C)N2)C1 [Example 13, (3aR,11aS)-5-(2-((R)-2-acryloyl-6-methyl-2,5,8-triazaspiro[3.5]nonan-8-yl)ethyl)-6-chloro-10-methyl-1-(6-methyl-4-(trifluoromethyl)pyridin-2-yl)-1,3a,4,5,10,11a-hexahydro-2H-benzo[b]pyrrolo[2,3-f][1,4]diazocine-2,11(3H)-dione]",1.26e+06 M⁻¹ s⁻¹
3,"C=C(CN(C)C)C(=O)NC12CC(CN3C[C@H]4CC(=O)N(c5cc(C(F)(F)F)cc(C)n5)[C@@H]4C(=O)N(C)c4cccc(Cl)c43)(C1)C2 [Example 164, N-(3-(((3aR,11aS)-6-chloro-10-methyl-1-(6-methyl-4-(trifluoromethyl)pyridin-2-yl)-2,11-dioxo-1,2,3,3a,4, 10,11,11a-octahydro-5H-benzo[b]pyrrolo[2,3-f][1,4]diazocin-5-yl)methyl)bicyclo[1.1.1]pentan-1-yl)-2-((dimethylamino)methyl) acrylamide]",2.38e+06 M⁻¹ s⁻¹
4,"C=CC(=O)N1CC2CN(CCN3C[C@H]4CC(=O)N(c5cc(C(F)(F)F)cc(C)n5)[C@@H]4C(=O)N(C)c4cccc(F)c43)CCN2C[C@@H]1C (single isomer, unassigned) [Example 10]",210000 M⁻¹ s⁻¹
5,"C=C(CN(C)C)C(=O)N1CC(COCCN2C[C@H]3CC(=O)N(c4cc(C(F)(F)F)cc(C)n4)[C@@H]3C(=O)N(C)c3cccc(C)c32)C1 [Example 182, (3aR,11aS)-5-(2-((1-(2-((dimethyl-amino)methyl)-acryloyl)azetidin-3-yl)methoxy)eth-yl)-6,10-dimethyl-1-(6-methyl-4-(trifluoromethyl)-pyridin-2-yl)-1,3a,4,5,10,11a-hexahydro-2H-benzo[b]pyrrolo [2,3-f][1,4]diazo-cine-2,11(3H)-dione]",5.23e+06 M⁻¹ s⁻¹
6,"C=CC(=O)N1CC2CN(CCN3C[C@H]4CC(=O)N(c5cc(C(F)(F)F)cc(C)n5)[C@@H]4C(=O)N(C)c4cccc(F)c43)CC(C1)O2 [Example 5, (3aR,11aS)-5-(2-(7-acryloyl-9-oxa-3,7-diazabicyclo[3.3.1]nonan-3-yl)ethyl)-6-fluoro-10-methyl-1-(6-methyl-4-(trifluoromethyl)pyridin-2-yl)-1,3a,4,5,10,11a-hexahydro-2H-benzo[b]pyrrolo[2,3-f][1,4]diazocine-2,11(3H)-dione]",140000 M⁻¹ s⁻¹
7,"Cc1cc(C(F)(F)F)cc(N2C(=O)C[C@@H]3CN(Cc4ccc5c(c4)CN(C(=O)/C=C/CN(C)C)C5)c4c(F)cccc4N(C)C(=O)[C@H]32)n1 [Example 148, (3aR,11aS)-5-((2-((E)-4-(dimethylamino)but-2-enoyl)isoindolin-5-yl)methyl)-6-fluoro-10-methyl-1-(6-methyl-4-(trifluoromethyl)pyridin-2-yl)-1,3a,4,5,10,11a-hexahydro-2H-benzo[b]pyrrolo[2,3-f][1,4]diazocine-2,11(3H)-dione]",1.65e+06 M⁻¹ s⁻¹
8,"C=C(CN(C)C)C(=O)N1CC(CCC(F)CN2C[C@H]3CC(=O)N(c4cc(C(F)(F)F)cc(C)n4)[C@@H]3C(=O)N(C)c3cccc(Cl)c32)C1 (stereo partly drawn) [Example 302, (3aR,11aS)-6-chloro-5-(4-(1-(2-((dimethylamino)methyl)acryloyl)azetidin-3-yl)-2-fluorobutyl)-10-methyl-1-(6-methyl-4-(trifluoromethyl)pyridin-2-yl)-1,3a,4,5,10,11a-hexahydro-2H-benzo[b]pyrrolo[2,3-f][1,4]diazocine-2,11(3H)-dione]",3.04e+06 M⁻¹ s⁻¹
9,"C=CC(=O)N1CCC[C@H]1c1nc(CN2C[C@H]3CC(=O)N(c4cc(C(F)(F)F)cc(C)n4)[C@@H]3C(=O)N(C)c3cccc(C)c32)no1 [Example 271, (3aR,11aS)-5-((5-((S)-1-acryloylpyrrolidin-2-yl)-1,2,4-oxadiazol-3-yl)methyl)-6,10-dimethyl-1-(6-methyl-4-(trifluoromethyl)pyridin-2-yl)-1,3a,4,5,10,11a-hexahydro-2H-benzo[b]pyrrolo[2,3-f][1,4]diazocine-2,11(3H)-dione]",200000 M⁻¹ s⁻¹

# Further lines, results first:
row,Kinact/Kl,SMILES
1,3.36e+06 M⁻¹ s⁻¹,"C=CC(=O)N1CC2(CN(CCN3C[C@H]4CC(=O)N(c5cc(C(F)(F)F)cc(C)n5)[C@@H]4C(=O)N(C)c4cccc(C)c43)C[C@H]2C#N)C1 (racemic) [Example 118b, (S/R)-2-acryloyl-6-(2-((3aR,11aS)-6,10-dimethyl-1-(6-methyl-4-(trifluoromethyl)pyridin-2-yl)-2,11-dioxo-1,2,3,3a,4,10,11,11a-octahydro-5H-benzo[b]pyrrolo[2,3-f][1,4]diazocin-5-yl)ethyl)-2,6-diazaspiro[3.4]octane-8-carbonitrile]"
2,170000 M⁻¹ s⁻¹,"C=CC(=O)N1CC(N2CCO[C@H]3CN(CCN4C[C@H]5CC(=O)N(c6cc(C(F)(F)F)cc(C)n6)[C@@H]5C(=O)N(C)c5cccc(F)c54)C[C@@H]32)C1 (single isomer, unassigned) [Example 22a]"
3,3.1e+06 M⁻¹ s⁻¹,"C=CC(=O)N1C[C@@H]2CN(CCN3C[C@H]4CC(=O)N(c5cc(C(F)(F)F)cc(C)n5)[C@@H]4C(=O)N(C)c4cccc(F)c43)CCN2[C@H](C)C1 [Example 63a, (3aR,11aS)-5-(2-((6R/S,9aS/R)-8-acryloyl-6-methyloctahydro-2H-pyrazino[1,2-a]pyrazin-2-yl)ethyl)-6-fluoro-10-methyl-1-(6-methyl-4-(trifluoromethyl)pyridin-2-yl)-1,3a,4,5,10,11a-hexahydro-2H-benzo[b]pyrrolo[2,3-f][1,4]diazocine-2,11(3H)-dione]"
4,1.62e+06 M⁻¹ s⁻¹,"C=C(CN(C)C)C(=O)N1CCC[C@H]1c1ccc(CN2C[C@H]3CC(=O)N(c4cc(C(F)(F)F)cc(C)n4)[C@@H]3C(=O)N(C)c3cccc(F)c32)cc1 (racemic) [Example 171b, (3aR,11aS)-5-(4-((S/R)-1-(2-((di-methylamino)-methyl)acryloyl)-pyrrolidin-2-yl)-benzyl)-6-fluoro-10-methyl-1-(6-methyl-4-(tri-fluoromethyl)-pyridin-2-yl)-1,3a,4,5,10,11a-hexahydro-2H-benzo[b]pyrrolo [2,3-f][1,4]diazo-cine-2,11(3H)-dione]"
